This note sets out measurements from paper PMC12505902, “Inhibitors of trehalose-6-phosphate synthase activity in fungal pathogens compromise thermal tolerance pathways” (mBio, 2025).

The target of one test is 6xHis-CnTps1 (Cryptococcus neoformans var. grubii, UniProt J9VJZ1). The experiment in a line: Spectrophotometric-coupled Tps1 enzyme activity assay. It counts as biochemical, C. neoformans. Conditions: 1 mM 4456dh. The protocol:
(§1) Fig 2 4456dh binds Tps1 and inhibits Tps1 activity. (A) Structure of 4456dh. (B and C) Glo-melt thermal shift assays reveal 4456dh destabilizes 6xHis-CaTps1 (B) and 6xHis-CnTps1 (C). The first derivative of the raw data was used to determine the melting temperature of 1 µM 6xHis-CaTps1 (B) and 1 µM 6xHis-CnTps1 (C) treated without (black) or with 2 mM 4456dh (red). […] The resulting dose-response curves were fitted to a one-site binding model to extract Kd values; the SD was calculated using the Kd values from each independent experiment (n = 3). (F) Tps1 enzyme activity assay with 5 µM 6xHis-CaTps1 (F) and 6xHis-CnTps1 (G) ±1 mM 4456dh. Error bars represent SE. […]
(§2) The ability of 4456dh to inhibit the activity of CaTps1 was tested using a spectrophotometric-coupled Tps1 enzyme assay, in which recombinant 6xHis-CaTps1 was incubated with 1 mM 4456dh at 4°C for 16 hours. […] Similarly, the effect of 1 mM 4456dh on 6xHis-CnTps1 activity was determined. […]
(§3) 82 determined by SDS-PAGE analysis, were pooled and concentrated to 1 mg/mL for downstream […]
(§4) 93 The data were acquired with MO.Control 1.5.3 (NanoTemper Technologies GmbH). Recorded
(§5) 94 data were analyzed with MO.Affinity Analysis 2.2.7 (NanoTemper Technologies GmbH). […]
(§6) 100 2X Glo-melt dye. Thermal denaturation was measured using an RT-PCR thermocycler (BioRad) […]
(§7) 102 determined by identifying the inflection point of the derivative data. […]

A further test addresses T1, 6xHis-CaTps1 (Candida albicans, UniProt Q92410).
T1 construct: Briefly, the full-length; thrombin cleavage site (pET-28a linker) (N); made in house; host or cells: E. coli BL21(DE3)pLysS
T1 sequence (Q92410 1-478): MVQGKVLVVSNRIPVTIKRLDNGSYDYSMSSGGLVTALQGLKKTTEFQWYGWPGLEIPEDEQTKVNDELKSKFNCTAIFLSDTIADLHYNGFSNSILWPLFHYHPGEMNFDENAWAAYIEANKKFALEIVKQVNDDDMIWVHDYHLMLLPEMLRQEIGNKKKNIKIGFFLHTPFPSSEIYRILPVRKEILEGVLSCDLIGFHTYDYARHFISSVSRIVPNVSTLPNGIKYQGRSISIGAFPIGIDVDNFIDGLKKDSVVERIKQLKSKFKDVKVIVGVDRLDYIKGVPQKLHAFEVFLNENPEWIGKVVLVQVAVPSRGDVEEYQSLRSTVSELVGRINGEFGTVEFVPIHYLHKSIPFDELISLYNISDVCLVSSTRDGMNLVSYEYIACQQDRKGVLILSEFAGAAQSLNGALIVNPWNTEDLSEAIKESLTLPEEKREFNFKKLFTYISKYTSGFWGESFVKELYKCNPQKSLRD
The description is as above. Conditions: 1 mM 4456dh, 4°C for 16 hours. It counts as biochemical, C. albicans. The protocol: as §1, §2, §3, §4, §5, §6, §7

Chain of 6xHis-CnTps1 (J9VJZ1 entry or part of it): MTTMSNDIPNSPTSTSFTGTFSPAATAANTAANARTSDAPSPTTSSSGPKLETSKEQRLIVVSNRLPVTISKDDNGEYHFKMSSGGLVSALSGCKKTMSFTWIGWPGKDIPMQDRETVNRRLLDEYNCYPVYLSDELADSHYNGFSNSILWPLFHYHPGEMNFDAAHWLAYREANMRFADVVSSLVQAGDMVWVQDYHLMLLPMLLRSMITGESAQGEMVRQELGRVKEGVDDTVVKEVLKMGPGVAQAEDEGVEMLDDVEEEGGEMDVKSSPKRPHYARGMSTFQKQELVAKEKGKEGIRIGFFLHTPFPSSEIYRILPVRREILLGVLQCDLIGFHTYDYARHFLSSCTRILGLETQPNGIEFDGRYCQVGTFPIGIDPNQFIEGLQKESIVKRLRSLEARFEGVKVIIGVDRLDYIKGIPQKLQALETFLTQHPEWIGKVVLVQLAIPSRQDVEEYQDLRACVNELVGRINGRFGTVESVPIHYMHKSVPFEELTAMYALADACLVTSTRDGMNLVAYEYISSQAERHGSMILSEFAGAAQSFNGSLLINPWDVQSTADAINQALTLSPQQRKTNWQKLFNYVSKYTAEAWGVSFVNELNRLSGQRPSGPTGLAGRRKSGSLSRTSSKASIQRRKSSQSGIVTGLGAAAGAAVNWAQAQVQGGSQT

`Cn1cc(-c2csc(NC(=O)Cc3ccccn3)n2)cn1` [Compound 4456dh]: the inhibition – broadly, the share of the control response that was lost under treatment – at 1000 µM against 6xHis-CnTps1 was around 30%. Besides, the “reduction of 6xHis-CaTps1 activity” value at 6xHis-CaTps1 is on record as “approximately 30%”.
